Laboratory results as given in patent publication US20080293683A1, “Hormone Replacement Therapy” (University of Kansas Medical Center, priority 2007, published 2008).
Read-outs that look alike come from different tables or passages of the source.

How the values were obtained:
recombinant human ERα = target: T1, recombinant human ERα (Homo sapiens, UniProt P03372); experiment: ERα binding assay: competition of [3H]E2 binding by competing estrogens; settings: for RBAα % (relative binding affinity for ERα, of E2): calculated against E2 = 100; for RBAα/RBAβ: ratio of relative binding affinities ERα over ERβ; for RBAα/RBAβ determined by extrapolating the curves: extrapolated from curves of FIGS. 3-7, IC50 not reached
T1 construct: purchased PanVera Corporation (Madison, Wis.); host or cells: baculovirus-mediated expression system
T1 sequence (P03372 1-595): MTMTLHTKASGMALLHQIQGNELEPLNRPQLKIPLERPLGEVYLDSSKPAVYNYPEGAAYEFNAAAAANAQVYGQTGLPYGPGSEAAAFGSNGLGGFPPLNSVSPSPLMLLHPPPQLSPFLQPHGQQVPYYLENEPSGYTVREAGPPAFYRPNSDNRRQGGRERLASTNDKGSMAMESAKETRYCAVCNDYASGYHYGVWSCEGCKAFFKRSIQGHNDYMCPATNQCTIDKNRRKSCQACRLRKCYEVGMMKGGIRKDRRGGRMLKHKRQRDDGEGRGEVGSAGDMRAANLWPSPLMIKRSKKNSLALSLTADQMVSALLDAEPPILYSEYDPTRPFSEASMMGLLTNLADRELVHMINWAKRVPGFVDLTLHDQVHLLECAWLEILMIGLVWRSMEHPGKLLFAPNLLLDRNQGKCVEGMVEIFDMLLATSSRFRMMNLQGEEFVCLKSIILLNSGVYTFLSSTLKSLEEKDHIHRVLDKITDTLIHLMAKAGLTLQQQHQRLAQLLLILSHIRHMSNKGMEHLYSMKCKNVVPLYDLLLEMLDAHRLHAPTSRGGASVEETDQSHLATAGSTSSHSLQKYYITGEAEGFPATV
Text: (§1) The recombinant human ERα and ERβ proteins and bovine serum albumin (BSA) were obtained from PanVera Corporation (Madison, Wis.). According to the supplier, the recombinant human ERα and ERβ were produced in a baculovirus-mediated expression system, and they were soluble and functionally active, with post-translational modifications similar to those found in mammalian cells. See Reid et al., Human estrogen receptor-α: Regulation by synthesis, modification and degradation, Cell. Mol. Life.
(§2) The following buffer solutions were used in the ER binding assays, and they were prepared beforehand and stored at 4° C. The binding buffer consisted of 10% glycerol, 2 mM dithiothreitol, 1 mg/mL BSA and 10 mM Tris-HCl at pH 7.5. The ERα washing buffer contained 40 mM Tris-HCl and 100 mM KCl (pH 7.4), but the ERG washing buffer contained only 40 mM Tris-HCl (adjusted to pH 7.4). The 50% hydroxylapatite slurry was prepared first by vigorously mixing 10 g hydroxylapatite with 60 mL of the Tris-HCl solution (50 mM, pH 7.4). Hydroxylapatite was then allowed to settle for 20 minutes at room temperature, and the supernatant was decanted. The above procedures were repeated 10 times, and afterwards hydroxylapatite was kept in the 50 mM Tris-HCl solution overnight at 4° C. Hydroxylapatite slurry was then adjusted to an approximate final concentration of 50% (v/v) using the same Tris-HCl solution and stored at 4° C., and the slurry was stable for up to several months.
(§3) Note that all of the estrogens were initially dissolved in pure ethanol to a stock concentration of 1 mM, and then further diluted to 100 μM with 20% aqueous ethanol. […] Immediately before the addition of the ERα or ERβ protein, it was diluted in the binding buffer and mixed gently with repetitive pipettings. […] The incubation mixture was then mixed gently and thoroughly with repetitive pipettings. […] The binding mixture was incubated at room temperature for two hours. At the end of the incubation, 100 μL of the hydroxylapatite slurry was added to each tube and the tubes were incubated on ice for 15 minutes with 3 times of brief vortexing. An aliquot (1 mL) of the appropriate washing buffer was added, mixed, and centrifuged at 10,000 g for five minutes, and the supernatants were discarded. This wash step was repeated twice. Hydroxylapatite pellets were then resuspended in 200 μL ethanol (followed by another rinse with 200 μL ethanol), and then the content was transferred to scintillation vials (containing 4 mL of the scintillation fluid) for measurement of ^3H-radioactivity with a liquid scintillation counter (Packard Tri-CARB 2900 TR; Downers Grove, Ill.).
(§4) To calculate the specific binding (pmol/mL) of the human ERα or ERβ protein at each concentration point, the following equation was used: […]
(§5) When a lower radioligand concentration is used, the corresponding IC50 value will also be relatively lower, but when the radioligand concentration increases, the corresponding IC50 value will also increase. […] Since the RBA value is a parameter that is independent of the radioligand concentration used, we thus have placed more emphasis on the RBA values instead of the absolute IC50 values in interpreting the physiological meanings of the data from in vitro receptor competition assays.

recombinant human ERβ = target: T2, recombinant human ERβ (Homo sapiens, UniProt Q92731); experiment: ERβ binding assay: competition of [3H]E2 binding by competing estrogens; settings: for RBAβ (%) (relative binding affinity for ERβ, of E2): calculated against E2 = 100; for binding affinity for ERβ (in words): concentrations up to 1000 nM
T2 construct: purchased PanVera Corporation (Madison, Wis.); host or cells: baculovirus-mediated expression system
T2 sequence (Q92731 whole entry): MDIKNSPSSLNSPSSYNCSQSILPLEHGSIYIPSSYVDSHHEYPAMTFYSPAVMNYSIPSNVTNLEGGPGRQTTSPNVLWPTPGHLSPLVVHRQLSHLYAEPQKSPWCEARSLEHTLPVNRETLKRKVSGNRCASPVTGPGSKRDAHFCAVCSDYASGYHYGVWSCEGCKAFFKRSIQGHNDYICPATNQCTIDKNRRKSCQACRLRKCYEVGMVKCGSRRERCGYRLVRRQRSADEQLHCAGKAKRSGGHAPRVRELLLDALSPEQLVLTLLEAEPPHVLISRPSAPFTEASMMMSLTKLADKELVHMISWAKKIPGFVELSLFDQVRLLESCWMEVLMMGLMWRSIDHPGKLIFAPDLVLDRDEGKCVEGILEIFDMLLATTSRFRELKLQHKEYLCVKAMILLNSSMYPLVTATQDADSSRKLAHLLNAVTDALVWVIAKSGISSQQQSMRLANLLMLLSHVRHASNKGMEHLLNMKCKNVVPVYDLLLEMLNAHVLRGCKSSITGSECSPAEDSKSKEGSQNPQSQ
Text: as §1, §2, §3, §4, §5

[1] = [3H]E2 10 nM, competitor up to 1000 nM, read-out: ERβ IC50

| Structure (SMILES) | RBAα % (relative binding affinity for ERα, of E2) (recombinant human ERα) [%] | RBAα/RBAβ (recombinant human ERα) | RBAβ (%) (relative binding affinity for ERβ, of E2) (recombinant human ERβ) | IC50 (recombinant human ERα; read-out: ERα IC50) [nM] | IC50 (recombinant human ERβ; read-out: ERβ IC50) [nM] | binding affinity for ERβ (in words) (recombinant human ERβ) | other results |
| --- | --- | --- | --- | --- | --- | --- | --- |
| C[C@]12CCc3c(ccc4cc(O)ccc34)[C@@H]1CCC2=O [D-Equilenin] | 2 | 0.3 | 7 |  |  |  | IC50 (recombinant human ERα): 562 nM; ERα RBA (recombinant human ERα; Table 4, Premarin components): 2; Ratio (ERα RBA / ERβ RBA) (recombinant human ERα; Table 4, Premarin components): 0.3; RBA for ERα, % of E1 (recombinant human ERα; relative to E1): 20%; IC50 (recombinant human ERβ): 126 nM; ERβ RBA (recombinant human ERβ; Table 4, Premarin components): 7; RBA for ERβ, % of E1 (recombinant human ERβ; relative to E1): 355%; binding affinity for ERβ, fold higher than E1 (recombinant human ERβ; relative to E1): more than 3 fold |
| CC[C@H](c1ccc(O)cc1)[C@@H](CC)c1ccc(O)cc1 [Hexestrol, reference compound] | 31 | 0.5 | 60 | 36.3 | 18.6 |  |  |
| CC12CCC3c4ccc(O)cc4C(=O)CC3C1CCC2O (stereo not drawn) [6-Keto-E2, 6-Ketoestradiol] | 71 | 1.3 | 56 |  |  |  | IC50 (recombinant human ERα): 15.9 nM; RBAα/RBAβ (recombinant human ERα; listed as 6-ketoestradiol): about 1.3; IC50 (recombinant human ERβ): 15.9 nM |
| C[C@]12CC[C@@H]3c4ccc(O)cc4C[C@@H](CCCCCCO)[C@H]3[C@@H]1CC[C@@H]2O [E2-7α-(CH2)6OH, 7α-(6-Hydroxyhexanyl)-17β-estradiol] | 27 | 0.7 | 40 | 41.8 | 22.3 |  |  |
| C[C@]12CCc3c(ccc4cc(O)ccc34)[C@@H]1CC[C@@H]2O [17β-Dihydroequilenin] |  |  |  |  |  |  | IC50 (recombinant human ERβ; [1]): 8.9 nM |
| COc1cc2c(cc1O)[C@H]1CC[C@]3(C)[C@@H](O)CC[C@H]3[C@@H]1CC2 [2-OH-3-MeO-E2, 2-Hydroxyestradiol 3-methyl ether] |  |  |  | > 1000 | > 1000 | substantially weaker binding affinity | binding affinity for ERα (in words) (recombinant human ERα; concentrations up to 1000 nM): substantially weaker binding affinity |
| C#CC1(O)CCC2C3CCc4cc(O)ccc4C3CCC21C (stereo not drawn) [17α-EE2, 17α-Ethynylestradiol, reference compound] |  |  |  |  |  | only about half of that of E2 |  |
| C[C@]12C[C@@H](O)[C@@H]3c4ccc(O)cc4CC[C@H]3[C@@H]1CCC2=O [11α-OH-E1, 11α-Hydroxyestrone] |  |  |  | > 1000 | > 1000 |  |  |
| C[C@]12CC[C@@H]3c4ccc(O)cc4CC[C@H]3[C@@H]1C[C@@H](O)[C@@H]2O [16α-OH-E2 (E3), 16α-Hydroxyestradiol (Estriol), reference compound] |  |  |  |  | 25.1 |  | preference of binding affinity for ERβ over ERα (recombinant human ERβ; listed as E3): more than five-fold |
| CC12CCC3c4ccc(O)c([N+](=O)[O-])c4CCC3C1CCC2=O (stereo not drawn) [4-NO2-E1, 4-Nitroestrone] | 3 |  |  | 447 | > 1000 | very weak binding affinities | binding affinity for ERα (in words) (recombinant human ERα; concentrations up to 1000 nM): very weak binding affinities |
| COc1cc2c(cc1O)CC[C@@H]1[C@@H]2CC[C@]2(C)[C@@H](O)CC[C@@H]12 [2-MeO-E2, 2-Methoxyestradiol] | 2 | 2 | 1 |  |  |  | IC50 (recombinant human ERα; [3H]E2 10 nM, competitor up to 1000 nM, read-out: ERα IC50): 501 nM; RBAα/RBAβ (recombinant human ERα; listed as 2-methoxyestradiol): about 2; IC50 (recombinant human ERβ; [1]): 631 nM |
| C[C@]12CC[C@@H]3c4ccc(O)cc4CC[C@H]3[C@@H]1[C@@H](O)[C@@H](O)[C@@H]2O [15α-OH-E3, 15α-Hydroxyestriol (Estetrol)] | 4 | 1.3 | 3 | 282 | 355 |  | RBAα/RBAβ (recombinant human ERα; listed as estetrol): about 1.3 |
| COc1c(O)ccc2c1CCC1C2CCC2(C)C(O)CCC12 (stereo not drawn) [4-MeO-E2, 4-Methoxyestradiol] | 2 | 2 | 1 |  |  |  | IC50 (recombinant human ERα): 708 nM; RBAα/RBAβ (recombinant human ERα; listed as 4-methoxyestradiol): about 2; IC50 (recombinant human ERβ): 891 nM |
| Cc1cc(O)cc2c1[C@H]1CC[C@]3(C)[C@@H](O)CC[C@H]3[C@@H]1CC2 [1-Methyl-E2, 1-Methylestradiol] | 14 | 1.8 | 8 | 79.4 | 112 |  | RBAα/RBAβ (recombinant human ERα; listed as 1-methylestradiol): about 1.8; decrease of binding affinity for ERα compared to E2 (recombinant human ERα; relative to E2): approximately 90%; decrease of binding affinity for ERβ compared to E2 (recombinant human ERβ; relative to E2): approximately 90% |
| COc1c(O)ccc2c1CCC1C2CCC2(C)C(=O)CCC12 (stereo not drawn) [4-MeO-E1, 4-Methoxyestrone] |  |  |  |  |  | did not have appreciable binding affinity | IC50 (recombinant human ERα): > 1000 nM; binding affinity for ERα (in words) (recombinant human ERα): did not have appreciable binding affinity; IC50 (recombinant human ERβ): > 1000 nM |
| C[C@]12CC[C@@H]3c4cc([N+](=O)[O-])c(O)cc4CC[C@H]3[C@@H]1CCC2=O [2-NO2-E1, 2-Nitroestrone] | 1 |  |  | 1580 | > 1000 | very weak binding affinities | binding affinity for ERα (in words) (recombinant human ERα; concentrations up to 1000 nM): very weak binding affinities; RBAα/RBAβ determined by extrapolating the curves (recombinant human ERα): about 3; RBAα/RBAβ determined by extrapolating the curves (recombinant human ERα; listed as 2-nitorestrone): ~3 |
| CC(=O)OC1C[C@]2(C)[C@@H](O)CC[C@H]2[C@@H]2CCc3cc(O)ccc3[C@@H]12 (stereo partly drawn) [11-Acetate-E2, 17β-Estradiol 11-acetate] |  |  |  |  |  |  | IC50 (recombinant human ERβ; [1]): 19.9 nM |
| C[C@]12CC[C@@H]3c4ccc(O)cc4CC[C@H]3[C@@H]1C[C@@H](O)[C@H]2O [16α-OH-E2-17α, 16α-Hydroxyestradiol-17α (16,17-Epiestriol)] |  |  |  |  | 11.2 |  | binding affinity for ERβ, times higher than E2-17α (recombinant human ERβ; relative to E2-17α): 16 times |
| C[C@]12CC[C@@H]3c4ccc(O)cc4CC[C@H]3[C@@H]1C[C@H](O)[C@H]2O [16β-OH-E2-17α, 16β-Hydroxyestradiol-17α (16,17-Epiestriol)] |  |  |  |  | 70.8 |  | preference of binding affinity for ERβ over ERα (recombinant human ERβ): 18 fold |
| C[C@]12CC[C@@H]3c4ccc(OS(=O)(=O)O)cc4CC[C@H]3[C@@H]1CCC2=O [E1-3-sulfate, Estrone 3-sulfate] |  |  |  |  | > 1000 | basically devoid of appreciable binding affinity | binding affinity for ERβ (in words) (recombinant human ERβ; listed as estrone-3-sulfate): virtually no estrogen receptor binding affinity |
| C[C@]12CC[C@@H]3c4ccc(O)cc4C[C@@H](CCCCCCOCc4ccccc4)[C@H]3[C@@H]1CC[C@@H]2O [E2-7α-(CH2)6OC6H5, 7α-(6-Benzyloxyhexanyl)-17β-estradiol] |  |  |  |  |  |  | IC50 (recombinant human ERβ; [1]): 63.1 nM |
| O=C(CC(=O)c1ccccc1)c1ccccc1 [DBM, Dibenzoylmethane, reference compound] |  |  |  |  |  | weak overall binding affinity | IC50 (recombinant human ERβ): > 1000 nM |
